This note sets out measurements from patent publication US20220017512A1 (SHANGHAI ENNOVABIO PHARMACEUTICALS CO., LTD., priority 2018, published 2022).

pIC50: −log10 of the molar value.

In data set [1] the target is T1, recombinant human TRKA (G667C) (Homo sapiens, UniProt P04629, G667C).
T1 construct: purchased SignalChem
Kind of data set: In vitro activity test on mutant TRKA (G667C) (HTRF KinEASE TK). In kind it is biochemical. The settings on record: 5.5 μM ATP, 30 min. Summed up:
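HTRF KinEASE TK format with recombinant human TRKA G667C (0.026 ng/μL), 1 μM biotinylated TK substrate, 5.5 […] ATP, 5 mM MgCl2, 1 mM DTT, 1% DMSO; 30 min at room temperature. Detection overnight; 665/620 ratio gives % inhibition, IC50 from 4-parameter fit over 10 doses (1 μM–0.004 nM).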

Data set [2] addresses T2, recombinant human TRKA (G595R) (Homo sapiens, UniProt P04629, G595R).
T2 construct: purchased SignalChem
Kind of data set: In vitro activity test on mutant TRKA (G595R) (HTRF KinEASE TK). In kind it is biochemical. The note with it: 4.5 μM ATP, 30 min. Summed up:
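HTRF KinEASE TK format: 0.12 ng/μL recombinant TRKA (G595R), 1 μM biotinylated TK substrate, 4.5 μM ATP, 5 mM MgCl2, 1 mM DTT, 1% DMSO, 30 min at room temperature; detection overnight. IC50 from 10-point 4-fold series (1 μM to 0.004 nM, duplicates), 665/620 ratio, 4-parameter fit.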
On the technique in general: Time-resolved FRET reads energy transfer from a long-lived donor to a nearby acceptor.

Data set [3] deals with T3, Recombinant human TRKA (Homo sapiens, UniProt P04629).
T3 construct: purchased Carna Biosciences
T3 sequence (P04629 33-796): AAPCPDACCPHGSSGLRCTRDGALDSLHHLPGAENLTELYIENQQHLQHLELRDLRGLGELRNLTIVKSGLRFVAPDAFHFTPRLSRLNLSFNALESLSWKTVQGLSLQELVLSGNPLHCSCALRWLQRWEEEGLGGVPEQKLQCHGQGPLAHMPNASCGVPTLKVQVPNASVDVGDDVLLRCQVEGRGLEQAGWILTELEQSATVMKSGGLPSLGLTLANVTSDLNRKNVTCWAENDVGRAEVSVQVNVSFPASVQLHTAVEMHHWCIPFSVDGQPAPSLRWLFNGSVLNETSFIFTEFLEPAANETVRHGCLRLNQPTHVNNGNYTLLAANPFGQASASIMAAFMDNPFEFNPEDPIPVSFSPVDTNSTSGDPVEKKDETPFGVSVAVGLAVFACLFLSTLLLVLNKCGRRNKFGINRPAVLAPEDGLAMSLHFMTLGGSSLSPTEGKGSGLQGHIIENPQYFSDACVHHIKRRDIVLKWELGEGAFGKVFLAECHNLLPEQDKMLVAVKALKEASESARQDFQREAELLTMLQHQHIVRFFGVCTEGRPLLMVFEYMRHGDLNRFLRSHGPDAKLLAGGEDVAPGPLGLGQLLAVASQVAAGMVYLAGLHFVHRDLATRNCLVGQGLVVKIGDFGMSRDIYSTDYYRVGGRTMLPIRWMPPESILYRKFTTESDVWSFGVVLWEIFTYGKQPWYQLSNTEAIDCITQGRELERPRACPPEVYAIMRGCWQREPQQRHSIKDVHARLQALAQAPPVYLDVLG
Kind of data set: In vitro activity test on TRKA kinase (HTRF KinEASE TK). Format: biochemical. The note with it: 14.68 μM ATP, 40 min. Summed up: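 Reaction: 0.2 ng/μL TRKA, 1 μM biotinylated TK substrate, 14.68 μM ATP, 5 mM MgCl2, 1 mM DTT, 1% DMSO, 40 min at room temperature. Compounds tested at 1 μM to 0.05 nM (10-point, 3-fold, duplicate). HTRF 665/620 ratio converted to % inhibition versus no-compound control; IC50 by 4-parameter fit.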

Data set [4] can be described thus: Pharmacokinetics experiment in mice. Format: in vivo, ICR mice. The note with it: mouse, 5 mg/kg; for Cmax / half-life / AUC(0-t): ICR, plasma, po; for AUC(0-t) / F: p.o.; for AUC(0-t): read-out: AUC0-24 hr. How it is done:
Biological Test Example 6: Pharmacokinetics Experiment of Small Molecular Inhibitors of the Present Invention in Mice
Tested compounds were administered to ICR mice via intravenous administration (IV) and para-oral (PO) administration, and blood samples were taken at different time points. The concentration of the tested article in mouse plasma was measured by LC-MS/MS, and relevant parameters were calculated. Specifically, a desired amount of a compound to be tested was taken and formulated in 5% DMSO+10% Solutol+85% injection water to form a solution at desired concentration for intravenous administration or para-oral administration. Animals were about 6-8 weeks old when the administration experiment started. Blood collection time for intravenous administration: 0.083 h, 0.25 h, 0.5 h, 1 h, 2 h, 4 h, 8 h, and 24 h after administration. Blood collection time for oral administration: 0.25 h, 0.5 h, 1 h, 2 h, 4 h, 6 h, 8 h and 24 h after administration. The biological sample analysis method and sample detection method were established. The pharmacokinetic parameters were calculated using Phoenix Winnonlin 7.0 software according to plasma concentration data at different time points, such as AUC(0-t), AUC(0-∞), T½, Cmax, Tmax, and MRT.

Data set [5] has as its target T4, Recombinant human TRKB (Homo sapiens, UniProt Q16620).
T4 construct: purchased Carna Biosciences
As to the kind of experiment: In vitro activity test on TRKB kinase (HTRF KinEASE TK). In kind it is biochemical. The settings on record: 4.77 μM ATP, 50 min. Summed up:
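Recombinant human TRKB (0.037 ng/μL) phosphorylated 1 μM biotinylated TK substrate at 4.77 μM ATP, 5 mM MgCl2, 1% DMSO, 50 min at room temperature; compounds 1 μM–0.05 nM. HTRF KinEASE detection overnight; 665/620 ratio converted to inhibition and IC50 from 4-parameter fit.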

Data set [6] has as its target T5, Recombinant human TRKC (Homo sapiens, UniProt Q16288).
T5 construct: purchased Carna Biosciences
Kind of data set: In vitro activity test on TRKC kinase (HTRF KinEASE TK). In kind it is biochemical. The note with it: 25.64 μM ATP, 40 min. Summed up:
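Recombinant human TRKC (0.037 ng/μL) with 1 μM biotinylated TK substrate, 25.64 μM ATP, 5 mM MgCl2, 1 mM DTT, 40 min at room temperature; compound 1 μM to 0.05 nM, 1% DMSO. HTRF 665/620 ratio after overnight detection; IC50 from 4-parameter fit.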

T2 sequence (P04629 33-796 G595R): as the sequence (P04629 33-796) above, with G563R counted along it
T4 sequence (Q16620 32-822): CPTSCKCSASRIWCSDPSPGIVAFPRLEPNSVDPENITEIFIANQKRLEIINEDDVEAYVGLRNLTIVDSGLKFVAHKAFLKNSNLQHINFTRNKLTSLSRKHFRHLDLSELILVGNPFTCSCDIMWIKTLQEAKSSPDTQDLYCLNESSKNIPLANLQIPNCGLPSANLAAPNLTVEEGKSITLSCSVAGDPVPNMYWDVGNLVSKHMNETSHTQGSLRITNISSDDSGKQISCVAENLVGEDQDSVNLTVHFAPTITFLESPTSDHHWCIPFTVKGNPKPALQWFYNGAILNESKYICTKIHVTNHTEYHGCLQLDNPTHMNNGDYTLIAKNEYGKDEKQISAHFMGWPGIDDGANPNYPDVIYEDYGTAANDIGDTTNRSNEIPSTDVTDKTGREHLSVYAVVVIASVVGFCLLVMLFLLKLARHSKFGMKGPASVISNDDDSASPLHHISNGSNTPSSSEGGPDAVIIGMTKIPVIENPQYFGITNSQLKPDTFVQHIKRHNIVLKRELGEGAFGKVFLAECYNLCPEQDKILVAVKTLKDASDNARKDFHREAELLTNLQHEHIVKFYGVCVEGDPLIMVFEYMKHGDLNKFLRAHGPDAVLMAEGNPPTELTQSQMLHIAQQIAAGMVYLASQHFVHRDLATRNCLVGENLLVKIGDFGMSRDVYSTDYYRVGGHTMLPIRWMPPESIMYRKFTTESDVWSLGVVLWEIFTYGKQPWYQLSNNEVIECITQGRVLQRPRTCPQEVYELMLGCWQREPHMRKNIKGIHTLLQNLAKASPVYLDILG
T5 sequence (Q16288 32-839): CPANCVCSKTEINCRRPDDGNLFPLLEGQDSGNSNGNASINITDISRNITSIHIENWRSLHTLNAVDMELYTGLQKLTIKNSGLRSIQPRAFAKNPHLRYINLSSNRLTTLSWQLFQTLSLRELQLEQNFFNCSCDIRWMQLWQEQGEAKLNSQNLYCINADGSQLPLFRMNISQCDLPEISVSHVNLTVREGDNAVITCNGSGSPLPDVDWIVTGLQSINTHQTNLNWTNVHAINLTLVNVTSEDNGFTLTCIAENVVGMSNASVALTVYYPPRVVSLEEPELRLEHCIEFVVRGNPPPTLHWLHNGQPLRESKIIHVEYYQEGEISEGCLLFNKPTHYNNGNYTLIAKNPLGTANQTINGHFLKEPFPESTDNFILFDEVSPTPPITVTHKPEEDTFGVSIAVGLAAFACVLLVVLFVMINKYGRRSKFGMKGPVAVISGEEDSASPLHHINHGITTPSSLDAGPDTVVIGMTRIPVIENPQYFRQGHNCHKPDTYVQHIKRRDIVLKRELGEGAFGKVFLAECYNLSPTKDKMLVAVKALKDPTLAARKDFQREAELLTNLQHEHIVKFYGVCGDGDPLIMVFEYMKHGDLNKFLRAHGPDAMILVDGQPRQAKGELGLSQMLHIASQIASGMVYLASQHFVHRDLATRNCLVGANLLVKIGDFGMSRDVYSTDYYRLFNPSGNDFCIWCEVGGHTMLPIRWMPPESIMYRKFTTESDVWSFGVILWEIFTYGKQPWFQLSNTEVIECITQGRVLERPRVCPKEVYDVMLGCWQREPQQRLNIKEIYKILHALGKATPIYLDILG
T1 sequence (P04629 33-796 G667C): as the sequence (P04629 33-796) above, with G635C counted along it

For the compound `Fc1ccc(F)c([C@H]2C[C@H](F)CN2c2ccc3ncc(Cl)c(-c4cnn(C5CCNCC5)c4)c3n2)c1` [Example 16, 7-chloro-2-((2R,4S)-2-(2,5-difluorophenyl)-4-fluoropyrrolidin-1-yl)-8-(1-(piperidin-4-yl)-1H-pyrazol-4-yl)-1,5-naphthyridine], the pIC50 in data set [1] is more than 9.00; in data set [2] it was more than 8.00; in data set [3] it was more than 9.00; in data set [5], more than 9.00; in data set [6], more than 9.00. In data set [4], this compound had a Cmax of 0.714 µg/mL. For the same compound, the half-life in data set [4] was 2.34 h. Besides, the AUC(0-t) in data set [4] came to 3.23 µg·h/mL. The compound also returned a F in data set [4] of 107%.
With `Fc1ccc(F)c([C@H]2C[C@H](F)CN2c2ccc3ncnc(-n4cc(C5CCNCC5)cn4)c3n2)c1` [Example 78, 6-((2R,4S)-2-(2,5-difluorophenyl)-4-fluoropyrrolidin-1-yl)-4-(4-(piperidin-4-yl)-1H-pyrazol-1-yl)pyrido[3,2-d]pyrimidine], the pIC50 is more than 8.00 in data set [1]; more than 9.00 in data set [2]; more than 9.00 in data set [3]; more than 9.00 in data set [5]; more than 9.00 in data set [6].
As for `OCCN1CCC(n2cc(-c3c(Cl)cnc4ccc(N5C[C@@H](F)C[C@@H]5c5cc(F)ccc5F)nc34)cn2)CC1` [Example 32, 2-(4-(4-(3-chloro-6-((2R,4S)-2-(2,5-difluorophenyl)-4-fluoropyrrolidin-1-yl)-1,5-naphthyridin-4-yl)-1H-pyrazol-1-yl)piperidin-1-yl)ethan-1-ol], the negative-log IC50 (pIC50) in data set [1], in data set [2], in data set [3], in data set [5] and in data set [6] was more than 9.00 each time.
Consider `Fc1ccc(F)c([C@H]2CCCN2c2ccc3ncc(F)c(-c4cnn(C5CCNCC5)c4)c3n2)c1` [Example 21], for which the pIC50 in data set [1] was more than 8.00; in data set [2] it was more than 9.00; in data set [3] it was more than 9.00; in data set [5] it was more than 9.00; in data set [6], more than 9.00.
Regarding `O[C@H]1CCN(c2ccc(-c3c(Cl)cnc4ccc(N5C[C@@H](F)C[C@@H]5c5cc(F)ccc5F)nc34)cn2)C1` [Example 66, (S)-1-(5-(3-chloro-6-((2R,4S)-2-(2,5-difluorophenyl)-4-fluoropyrrolidin-1-yl)-1,5-naphthyridin-4-yl)pyridin-2-yl)pyrrolidin-3-ol], the negative-log IC50 (pIC50) is more than 8.00 in data set [1]; more than 8.00 in data set [2]; more than 9.00 in data set [3]; more than 8.00 in data set [5]; more than 8.00 in data set [6].
As for `Fc1ccc(F)c([C@H]2C[C@H](F)CN2c2ccc3nccc(-c4cnn(C5CCNCC5)c4)c3n2)c1` [Example 11, 2-((2R,4S)-2-(2,5-difluorophenyl)-4-fluoropyrrolidin-1-yl)-8-(1-(piperidin-4-yl)-1H-pyrizol-4-yl)-1,5-naphthyridine], the pIC50 in data set [1], in data set [2], in data set [3], in data set [5] and in data set [6] was more than 9.00 in each case.
`NC(=O)c1ccnc2ccc(N3CCC[C@@H]3c3cc(F)ccc3F)nc12` [Example 10, (R)-6-(2-(2,5-difluorophenyl)pyrrolidin-1-yl)-1,5-naphthyridin-4-carboxamide]: the pIC50 in data set [1] was more than 7.00; in data set [2], more than 9.00; in data set [3], more than 9.00; in data set [5], more than 9.00; in data set [6], more than 9.00.
Turning to `COc1ccc(F)cc1[C@H]1CCCN1c1ccc2ncc(Cl)c(-c3cnn(C4CCNCC4)c3)c2n1` [Example 33, (R)-7-chloro-2-(2-(5-fluoro-2-methoxyphenyl)pyrrolidin-1-yl)-8-(1-(piperidin-4-yl)-1H-pyrazol-4-yl)-1,5-naphthyridine], the pIC50 was more than 8.00 in data set [1]; more than 8.00 in data set [2]; more than 9.00 in data set [3]; more than 8.00 in data set [5]; more than 7.30 in data set [6].
For the compound `CN1CCC(n2cc(-c3ccnc4ccc(N5C[C@@H](F)C[C@@H]5c5cc(F)ccc5F)nc34)cn2)CC1` [Example 13, 2-((2R,4S)-2-(2,5-difluorophenyl)-4-fluoropyrrolidin-1-yl)-8-(1-(1-methylpiperidin-4-yl)-1H-pyrazol-4-yl)-1,5-naphthyridine], the pIC50 in data set [1] was more than 8.00; in data set [2] it was more than 9.00; in data set [3], more than 9.00; in data set [5], more than 9.00; in data set [6] it was more than 9.00.
On to `Fc1ccc(F)c([C@H]2C[C@H](F)CN2c2ccc3nccc(-c4cnn(C5CCOCC5)c4)c3n2)c1` [Example 12, 2-((2R,4S)-2-(2,5-difluorophenyl)-4-fluoropyrrolidin-1-yl)-8-(1-(tetrahydro-2H-pyran-4-yl)-1H-pyrazol-4-yl)-1,5-naphthyridine], for which the pIC50 in data set [1], in data set [2], in data set [3], in data set [5] and in data set [6] was more than 9.00 in each case.
For `Fc1ccc(F)c([C@H]2C[C@H](F)CN2c2ccc3ncc(Cl)c(-c4noc(C5CCNCC5)n4)c3n2)c1` [Example 51, 3-(3-Chloro-6-((2R,4S)-2-(2,5-difluorophenyl)-4-fluoropyrrolidin-1-yl)-1,5-naphthyridine-4-yl)-5-(piperidin-4-yl)-1,2,4-oxadiazole], the negative-log IC50 (pIC50) in data set [1], in data set [2], in data set [3], in data set [5] and in data set [6] was more than 9.00 each time.
For the compound `Fc1ccc(F)c([C@H]2C[C@H](F)CN2c2ccc3ncc(Cl)c(-c4cnn(C5CCNCC5)n4)c3n2)c1` [Example 41, 7-chloro-2-((2R,4S)-2-(2,5-difluorophenyl)-4-fluoropyrrolidin-1-yl)-8-(2-(piperidin-4-yl)-2H-1,2,3-triazol-4-yl)-1,5-naphthyridine], the pIC50 in data set [1] is more than 9.00; in data set [2], more than 8.00; in data set [3], more than 9.00; in data set [5] it was more than 9.00; in data set [6], more than 9.00.
For the compound `Fc1ccc(F)c([C@H]2C[C@H](F)CN2c2ccc3ncc(Cl)c(-c4cnc(C5CCNCC5)s4)c3n2)c1` [Example 50, 5-(3-Chloro-6-((2R,4S)-2-(2,5-difluorophenyl)-4-fluoropyrrolidin-1-yl)-1,5-naphthyridin-4-yl)-2-(piperidin-4-yl)thiazole], the negative-log IC50 (pIC50) in data set [1] was more than 8.00; in data set [2] it was more than 8.00; in data set [3], more than 9.00; in data set [5], more than 8.00; in data set [6] it was more than 8.00.
With `Fc1ccc(F)c([C@H]2C[C@H](F)CN2c2ccc3ncc(F)c(-c4cnn(C5CCNCC5)c4)c3n2)c1` [Example 20], the negative logarithm of the IC50 (pIC50) in data set [1], in data set [2], in data set [3], in data set [5] and in data set [6] was more than 9.00 in each case. The compound further registered a Cmax in data set [4] of 0.448 µg/mL. In data set [4], this compound showed a half-life of 2.82 h. In data set [4], the AUC(0-t) came to 2.71 µg·h/mL. Also, the F in data set [4] was determined as 144%.

As usually defined, the pIC50 is −log10 of the IC50, conventionally taken in molar units. For orientation: Cmax means the maximum level reached in the sampled fluid or tissue. The term half-life denotes how long it takes for the measured level to halve. A lower half-life goes with fast loss.
